Laboratory results taken from publication PMC7201885 (The Journal of General Physiology, 2020).
Several values for one entry are separate records, joined by “and”; a condition that tells them apart may be missing. Equal values may be shown once. Read-outs that look alike come from different tables or passages of the source. Values belong to the compound of their own block, whether it stands above or below them.

Tests used:
nvTRPM2 = nvTRPM2 (Nematostella vectensis, UniProt A7T1N0); test: Inside-out patch-clamp, full-length; format: cell-based; details: for Mode of action on nvTRPM2: compared with ADPR; for Maximal fractional activation: relative to current in 100 µM ADPR
nvTRPM2, sequence (A7T1N0 whole entry): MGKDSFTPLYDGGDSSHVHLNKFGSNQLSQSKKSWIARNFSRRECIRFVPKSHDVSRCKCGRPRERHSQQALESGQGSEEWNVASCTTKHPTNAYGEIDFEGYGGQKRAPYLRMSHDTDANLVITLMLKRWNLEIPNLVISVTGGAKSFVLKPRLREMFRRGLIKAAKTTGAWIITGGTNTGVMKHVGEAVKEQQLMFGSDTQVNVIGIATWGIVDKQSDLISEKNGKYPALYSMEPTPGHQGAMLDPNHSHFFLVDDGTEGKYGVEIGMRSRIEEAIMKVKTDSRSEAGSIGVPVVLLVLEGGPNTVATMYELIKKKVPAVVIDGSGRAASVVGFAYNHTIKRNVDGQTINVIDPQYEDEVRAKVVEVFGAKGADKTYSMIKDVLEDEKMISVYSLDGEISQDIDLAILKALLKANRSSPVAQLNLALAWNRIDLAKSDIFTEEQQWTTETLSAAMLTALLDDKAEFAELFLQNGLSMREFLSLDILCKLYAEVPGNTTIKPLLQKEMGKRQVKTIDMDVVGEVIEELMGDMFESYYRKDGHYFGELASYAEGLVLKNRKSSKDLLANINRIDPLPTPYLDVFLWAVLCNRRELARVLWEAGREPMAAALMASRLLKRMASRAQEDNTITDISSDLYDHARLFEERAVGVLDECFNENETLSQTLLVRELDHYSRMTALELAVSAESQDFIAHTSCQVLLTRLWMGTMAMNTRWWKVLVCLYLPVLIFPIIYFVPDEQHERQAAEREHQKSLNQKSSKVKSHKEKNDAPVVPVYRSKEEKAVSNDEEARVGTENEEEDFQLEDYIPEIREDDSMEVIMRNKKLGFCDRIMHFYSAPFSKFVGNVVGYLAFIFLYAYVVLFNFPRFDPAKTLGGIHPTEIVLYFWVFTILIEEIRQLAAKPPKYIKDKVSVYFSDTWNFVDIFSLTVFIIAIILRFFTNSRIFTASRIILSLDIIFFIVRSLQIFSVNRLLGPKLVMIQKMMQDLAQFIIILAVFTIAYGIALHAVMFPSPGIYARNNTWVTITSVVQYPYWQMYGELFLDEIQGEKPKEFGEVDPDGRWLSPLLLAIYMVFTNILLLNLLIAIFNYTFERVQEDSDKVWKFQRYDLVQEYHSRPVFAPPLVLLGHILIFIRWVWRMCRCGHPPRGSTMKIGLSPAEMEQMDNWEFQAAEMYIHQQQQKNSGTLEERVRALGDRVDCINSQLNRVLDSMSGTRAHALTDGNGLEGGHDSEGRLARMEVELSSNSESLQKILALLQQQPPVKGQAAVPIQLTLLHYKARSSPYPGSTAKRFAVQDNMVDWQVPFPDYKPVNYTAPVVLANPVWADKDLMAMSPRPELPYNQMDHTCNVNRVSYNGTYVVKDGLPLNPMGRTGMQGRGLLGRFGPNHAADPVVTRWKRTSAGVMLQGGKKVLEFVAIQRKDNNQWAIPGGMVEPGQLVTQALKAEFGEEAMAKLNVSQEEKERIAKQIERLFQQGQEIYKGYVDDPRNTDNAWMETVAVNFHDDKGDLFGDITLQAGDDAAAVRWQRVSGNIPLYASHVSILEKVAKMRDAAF

T143A nvTRPM2 = T143A nvTRPM2 (Nematostella vectensis, UniProt A7T1N0, T143A); test: Inside-out patch-clamp, T143A nvTRPM2; format: cell-based
T143A nvTRPM2, sequence (A7T1N0 whole entry T143A): as the sequence (A7T1N0 whole entry) above, with T143A counted along it

R271A nvTRPM2 = R271A nvTRPM2 (Nematostella vectensis, UniProt A7T1N0, R271A); test: Inside-out patch-clamp, R271A nvTRPM2; format: cell-based
R271A nvTRPM2, sequence (A7T1N0 whole entry R271A): as the sequence (A7T1N0 whole entry) above, with R271A counted along it

T307A nvTRPM2 = T307A nvTRPM2 (Nematostella vectensis, UniProt A7T1N0, T307A); test: Inside-out patch-clamp, T307A nvTRPM2; format: cell-based
T307A nvTRPM2, sequence (A7T1N0 whole entry T307A): as the sequence (A7T1N0 whole entry) above, with T307A counted along it

R329A nvTRPM2 = R329A nvTRPM2 (Nematostella vectensis, UniProt A7T1N0, R329A); test: Inside-out patch-clamp, R329A nvTRPM2; format: cell-based
R329A nvTRPM2, sequence (A7T1N0 whole entry R329A): as the sequence (A7T1N0 whole entry) above, with R329A counted along it

T179A nvTRPM2 = T179A nvTRPM2 (Nematostella vectensis, UniProt A7T1N0, T179A); test: Inside-out patch-clamp, T179A nvTRPM2; format: cell-based
T179A nvTRPM2, sequence (A7T1N0 whole entry T179A): as the sequence (A7T1N0 whole entry) above, with T179A counted along it

Y264A nvTRPM2 = Y264A nvTRPM2 (Nematostella vectensis, UniProt A7T1N0, Y264A); test: Inside-out patch-clamp, Y264A nvTRPM2; format: cell-based
Y264A nvTRPM2, sequence (A7T1N0 whole entry Y264A): as the sequence (A7T1N0 whole entry) above, with Y264A counted along it

hsTRPM2 = details: cited from earlier work
[1] = read-out: EC50 for channel activation by Ca2+ (fractional Po), saturating ADPRP (100 µM) + 2.5 µM PIP2
[2] = saturating ADPRP (100 µM) + 2.5 µM PIP2
[3] = read-out: EC50 for channel activation by Ca2+ (fractional Po), saturating ADPRP (1,000 µM) + 2.5 µM PIP2
[4] = saturating ADPRP (1,000 µM) + 2.5 µM PIP2
[5] = 2.5 and 25 µM PIP2, 125 µM Ca2+ + 3.2 mM ADPR
[6] = 25 µM PIP2, 125 µM Ca2+ + 3.2 mM ADPR
[7] = full-length nvTRPM2, 125 µM Ca2+
[8] = read-out: EC50 for nvTRPM2 channel activation, full-length nvTRPM2, 125 µM cytosolic Ca2+, Hill fit, −20 mV
[9] = read-out: EC50 for channel activation, 125 µM Ca2+ + 2.5 µM PIP2

Compound: [Ca+2] [Ca^2+]
- Hill coefficient nH for activation by Ca2+ (nvTRPM2; WT, saturating ADPRP (10 µM) + 2.5 µM PIP2): 1.7 ± 0.2
- EC50 (T143A nvTRPM2; [1]): 640 ± 20 nM
- Hill coefficient nH for activation by Ca2+ (T143A nvTRPM2; [2]): 2.3 ± 0.2
- EC50 (R271A nvTRPM2; read-out: EC50 for channel activation by Ca2+ (fractional Po), saturating ADPRP (10 µM) + 2.5 µM PIP2): 1680 ± 40 nM
- Hill coefficient nH for activation by Ca2+ (R271A nvTRPM2; saturating ADPRP (10 µM) + 2.5 µM PIP2): 3.0 ± 0.2
- EC50 (T307A nvTRPM2; [3]): 0.93 ± 0.05 µM
- Hill coefficient nH for activation by Ca2+ (T307A nvTRPM2; [4]): 1.9 ± 0.2
- EC50 (R329A nvTRPM2; [3]): 1100 ± 40 nM
- Hill coefficient nH for activation by Ca2+ (R329A nvTRPM2; [4]): 2.0 ± 0.2
- EC50 (T179A nvTRPM2; [1]): 1800 ± 100 nM
- Hill coefficient nH for activation by Ca2+ (T179A nvTRPM2; [2]): 2.3 ± 0.1
- EC50 (Y264A nvTRPM2; [3]): 2000 ± 100 nM
- Hill coefficient nH for activation by Ca2+ (Y264A nvTRPM2; [4]): 1.8 ± 0.1

Compound: O=P(O)(OC[C@H]1OC(O)[C@H](O)[C@@H]1O)OP(=O)(O)OC[C@H]1O[C@@H](n2cnc3c2ncn2ccnc32)[C@H](O)[C@@H]1O (some centres unmarked) [ε-ADPR, 1,N^6-ethenoadenosine-5′-O-diphosphoribose]
- Mode of action on nvTRPM2 (nvTRPM2; 125 µM Ca2+): low-affinity antagonist
- Current induced by the analogue alone (nvTRPM2; 200 µM, 125 µM cytosolic Ca2+): only tiny currents
- Reduction of currents elicited by 3.2 µM ADPR (nvTRPM2; coapplication of 200 µM ε-ADPR, 125 µM Ca2+): ~25%
- Mode of action on hsTRPM2 (hsTRPM2; ref Iordanov et al., 2016): low-affinity antagonist

Now from value to compound, other results behind:

- Stimulation of macroscopic current by exogenous PIP2 (nvTRPM2; WT, 125 µM Ca2+ + 3.2 mM ADPR): only marginal additional stimulation
- Stimulation of macroscopic current by exogenous PIP2 (T143A nvTRPM2; [5]): small fractional stimulation
- Stimulation of macroscopic current by exogenous PIP2 (R271A nvTRPM2; [6]): approximately twofold
- Stimulation of macroscopic current by exogenous PIP2 (T307A nvTRPM2; [5]): small fractional stimulation
- Stimulation of macroscopic current by exogenous PIP2 (T179A nvTRPM2; [6]): ~80 fold
- Stimulation of macroscopic current by exogenous PIP2 (Y264A nvTRPM2; [6]): ~40 fold
Compound: CCCCCCCC(=O)OC[C@H](COP(=O)(O)O[C@@H]1[C@H](O)[C@H](O)[C@@H](OP(=O)(O)O)[C@H](OP(=O)(O)O)[C@H]1O)OC(=O)CCCCCCC [PIP2, phosphatydyl-inositol-4-5-bisphosphate]

- Mode of action on nvTRPM2 (nvTRPM2; 125 µM Ca2+): similarly efficacious and potent as ADPR
- Hill coefficient nH for channel activation (nvTRPM2; [7]): 1.3 ± 0.2
- EC50 (nvTRPM2; [8]): ~2700 nM and 2700 nM
- Maximal fractional activation (nvTRPM2; 125 µM Ca2+): 1.1 ± 0.04
Compound: Nc1ncnc2c1ncn2[C@H]1C[C@H](O)[C@@H](COP(=O)(O)OP(=O)(O)OC[C@H]2OC(O)[C@H](O)[C@@H]2O)O1 (some centres unmarked) [dADPR, 2′-deoxy-ADPR]
- Mode of action on hsTRPM2 (hsTRPM2; larger maximal whole-cell currents compared with ADPR, ref Fliegert et al., 2017): super-agonist

- Mode of action on nvTRPM2 (nvTRPM2; 125 µM Ca2+): full agonist
- Potency for activating WT nvTRPM2 relative to ADPR (nvTRPM2; EC50 ratio versus ADPR): approximately fivefold
- Hill coefficient nH for channel activation (nvTRPM2; WT nvTRPM2, 125 µM Ca2+ + 2.5 µM PIP2): 1.8 ± 0.2
- Hill coefficient nH for channel activation (nvTRPM2; [7]): 2.1 ± 0.4
- EC50 (nvTRPM2; read-out: EC50 for channel activation, WT nvTRPM2, 125 µM Ca2+ + 2.5 µM PIP2): 310 ± 20 nM
- EC50 (nvTRPM2; [8]): ~400 nM
- Maximal fractional activation (nvTRPM2; 125 µM Ca2+): 1.06 ± 0.03
- Hill coefficient nH for channel activation (T143A nvTRPM2; 125 µM Ca2+ + 2.5 µM PIP2): 1.8 ± 0.1
- EC50 (T143A nvTRPM2; [9]): 1500 ± 100 nM
- Hill coefficient nH for channel activation (R271A nvTRPM2; 125 µM Ca2+ + 2.5 µM PIP2): 1.7 ± 0.2
- EC50 (R271A nvTRPM2; [9]): 89 ± 5 nM
- Hill coefficient nH for channel activation (T307A nvTRPM2; 125 µM Ca2+ + 2.5 µM PIP2): 1.6 ± 0.2
- EC50 (T307A nvTRPM2; [9]): 12 ± 1 µM
- Hill coefficient nH for channel activation (R329A nvTRPM2; 125 µM Ca2+ + 2.5 µM PIP2): 2.1 ± 0.2
- Hill coefficient nH for channel activation (T179A nvTRPM2; 125 µM Ca2+ + 2.5 µM PIP2): 1.4 ± 0.2
- EC50 (T179A nvTRPM2; [9]): 3900 ± 500 nM
- Hill coefficient nH for channel activation (Y264A nvTRPM2; 125 µM Ca2+ + 2.5 µM PIP2): 1.8 ± 0.3
Compound: Nc1ncnc2c1ncn2[C@@H]1O[C@H](COP(=O)(O)OP(=O)(O)OC[C@H]2O[C@@H](O)C(O)[C@H]2O)C(O)[C@@H]1OP(=O)(O)O (some centres unmarked) [ADPRP, ADPR-2′-phosphate]
- EC50 (hsTRPM2; read-out: EC50 for hsTRPM2, activation, inside-out patches, saturating cytosolic Ca2+, ref Tóth et al., 2015): 13 ± 1 µM
- Mode of action on hsTRPM2 (hsTRPM2; ref Tóth et al., 2015): low-affinity partial agonist
